Columns and labels:
[1] = target: T1, Human Jak3 (Homo sapiens, UniProt P52333); assay: Jak3 Kinase Assay (HTRF, GST-Jak3 catalytic domain); assay type: biochemical; conditions: for IC50: (R) and (S) enantiomer pair
T1 construct: A fragment encoding the catalytic domain of Jak3 (508aa to 1124aa) was ligated with GST at 5′ end; made in house; host or cells: Sf9 insect cells (baculovirus, pFastBac 1)
T1 sequence (P52333 508-1124): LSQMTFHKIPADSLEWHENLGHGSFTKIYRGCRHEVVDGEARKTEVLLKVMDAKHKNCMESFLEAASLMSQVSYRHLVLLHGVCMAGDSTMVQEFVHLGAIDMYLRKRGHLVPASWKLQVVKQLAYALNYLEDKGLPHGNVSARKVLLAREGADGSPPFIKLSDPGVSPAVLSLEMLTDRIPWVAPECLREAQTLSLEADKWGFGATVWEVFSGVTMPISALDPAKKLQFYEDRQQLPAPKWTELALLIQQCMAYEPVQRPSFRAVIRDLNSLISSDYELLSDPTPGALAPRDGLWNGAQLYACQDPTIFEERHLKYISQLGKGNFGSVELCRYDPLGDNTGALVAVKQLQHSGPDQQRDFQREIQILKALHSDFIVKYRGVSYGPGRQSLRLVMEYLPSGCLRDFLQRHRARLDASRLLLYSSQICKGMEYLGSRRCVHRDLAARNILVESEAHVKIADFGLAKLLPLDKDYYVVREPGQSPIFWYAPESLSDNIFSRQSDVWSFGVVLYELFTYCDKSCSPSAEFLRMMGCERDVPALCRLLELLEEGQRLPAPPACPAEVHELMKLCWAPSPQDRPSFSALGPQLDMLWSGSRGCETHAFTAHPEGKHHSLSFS
Protocol: Human Jak3 cDNA was amplified by PCR. A fragment encoding the catalytic domain of Jak3 (508aa to 1124aa) was ligated with GST at 5′ end. This fused GST-Jak3 DNA fragment was cloned into the EcoRI site of the donor plasmid pFastBac 1 (Life Technologies #10359-016). The transformation, transposition, and transfection of insect cells (Sf9) were performed according to the manufacture's instructions. The cell lysate containing recombinant GST-Jak3 was used in the kinase assay. Anti-GST antibody (10 μg/ml, Sigma #G1417) was coated onto a 384-well plate at 4° C. overnight. Cell lysate containing GST-Jak3 (1:100 dilution) was added to the anti-GST coated plates, and GST-Jak3 was captured by immobilized anti-GST antibody. Testing compounds and substrate mix (50 mM HEPES, pH 7, 0.5 mM Na3VO4, 25 mM MgCl2, 1 mM DTT, 0.005% BSA, 1 μM ATP, and 4.5 μg/ml biotinyl poly-Glu,Ala,Tyr) were added to the plate to initiate the reaction. After a 60-min incubation, the reaction was stopped by 4 mM EDTA, and phosphorylation of biotinyl poly-Glu,Ala,Tyr was detected using 17 μg/ml Cy5-streptavidin (Amersham, #PA92005) and 2.7 μg/ml Europium-conjugated anti-phosphotyrosine antibody (PerkinElmer #AD0069) using homogeneous time-resolved fluorescence (HTRF) technology.

[2] = system: IL-2-induced IFN-γ production; assay: IL-2-Induced IFN-γ Production in the Mouse; assay type: in vivo; conditions: po, 1 h, 30 mg/kg by gavage one hour before IL-2, serum IFN-γ, female BALB/c mice, read-out: inhibition of IL-2-induced IFN-gamma production
Protocol: Administration of IL-2 leads to an increase in serum IFN-γ in the mouse due to NK secretion of the cytokine (Thornton S, Kuhn K A, Finkelman F D and Hirsch R. NK cells secrete high levels of IFN-γ in response to in vivo administration of IL-2. Eur J Immunol 2001 31:3355-3360). The experiment was carried out essentially according to the protocol in Thornton et al. and the test compounds were administered in order to determine the level of inhibition attained. In summary, female BALB/c mice were fasted for 12-18 hours before a study but had free access to water at all times. Test compounds were administered by gavage one hour before intraperitoneal injection of IL-2 and capture antibody. At termination of the studies, the mice were sacrificed by carbon dioxide inhalation, terminal blood samples were collected by cardiac puncture and serum was generated. Serum was stored frozen until it was assayed for IFN-γ, as described by the kit manufacturer (BD Pharmingen™, San Diego, Calif.).

IC50 [1] | SMILES | Jak3 potency relative to the other enantiomer ([1]; (R) versus (S) enantiomer) | inhibition at 30 mg/kg [2]
< 1000 nM | O=c1[nH]c2cnc(-n3cnc4ccccc43)nc2n1[C@@H]1CCOc2c(F)cc(F)cc21 | more potent than its corresponding (S) enantiomer | 
< 1000 nM | O=c1[nH]c2cnc(-n3cnc4ccccc43)nc2n1[C@H]1CCOc2c(F)cc(F)cc21 |  | 
 | C[C@@H]1CCN(C(=O)CC#N)C[C@@H]1N(C)c1ncnc2[nH]ccc12 [CP690550, reference compound] |  | 96%
 | O=c1[nH]c2cnc(-n3cnc4ccccc43)nc2n1[C@@H]1CCOc2c(F)cccc21 [Example 114] |  | > 40%
 | C[C@H](c1cccnc1)n1c(=O)[nH]c2cnc(-n3cnc4ccccc43)nc21 [Example 120] |  | > 40%
 | O=C1CCC(n2c(=O)[nH]c3cnc(-n4cnc5ccccc54)nc32)c2ccccc21 (stereo not shown) [Example 135] |  | > 40%
 | O=c1[nH]c2cnc(-n3cnc4ccc(F)cc43)nc2n1C1CCOc2c(F)cccc21 (stereo not shown) [Example 142] |  | > 40%
 | O=c1[nH]c2cnc(-n3cnc4ccccc43)nc2n1C1CCOc2c(F)cc(F)cc21 (stereo not shown) [Example 151] |  | > 40%
 | O=c1[nH]c2cnc(-n3cnc4ccccc43)nc2n1C1CCOc2c(F)ccc(F)c21 (stereo not shown) [Example 162] |  | > 40%
